From PubChem BioAssay (NCI) come the findings set out here.

Each structure is given as a SMILES string.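 Growth conditions: 96-well plates. Treatment: test compound, 48 hours, 5 concentrations. Analysis: linear interpolation between bracketing concentrations; unreached endpoints set to highest concentration. GI50 = concentration required for 50% inhibition of growth. TGI: concentration producing complete growth inhibition.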

Some test systems named below: A498 renal; A549 NSCLC; KM12 colon; M14 melanoma; MALME-3M melanoma; MOLT-4 leukemia; PC-3 prostate; SF-295 CNS; SW-620 colon; T-47D breast.
Common to all, as to assay: NCI anticancer screen, dose series, 48 h

Take `COc1cc2c(cc1[N+](=O)[O-])C(=O)C(Br)(Br)CCC2`: the TGI was 28.6 µM with A498 renal; over 46.6 µM in the assay on A549 NSCLC; 15.2 µM in the assay with KM12 colon; 5.34 µM in the assay with M14 melanoma; 4.99 µM with MALME-3M melanoma; 5.95 µM in the assay on MOLT-4 leukemia. Besides, the TGI in the assay with PC-3 prostate is 17 µM; in the assay with SF-295 CNS, 19.4 µM; in the assay with SW-620 colon, 3.99 µM; with T-47D breast it was over 27.2 µM.
In the case of `CO/C(=C1/NC(=O)C(Cc2ccc(O)c(Br)c2)N(C)C(=O)C(C)NC(=O)CCC/C=C(\C)CCC(C)OC1=O)c1ccccc1` (stereo unspecified), the GI50 with A498 renal was 0.0174 µM; with A549 NSCLC it was under 0.0141 µM; in the assay with KM12 colon, 0.0784 µM; in the assay with M14 melanoma, under 0.0205 µM; in the assay on MALME-3M melanoma it was 0.0319 µM; with MOLT-4 leukemia it was 0.119 µM. In addition, the GI50 in the assay with PC-3 prostate is 0.036 µM; in the assay with SF-295 CNS, 0.0502 µM; with SW-620 colon, 0.0146 µM; with T-47D breast, 0.0354 µM. In addition, the TGI was 0.0357 µM in the assay on A498 renal; 0.471 µM in the assay on A549 NSCLC; 19.2 µM in the assay on KM12 colon; 0.123 µM in the assay with MALME-3M melanoma; over 100 µM with MOLT-4 leukemia; 0.595 µM in the assay with PC-3 prostate. For the same molecule, the TGI is 0.17 µM with SF-295 CNS, 33.3 µM in the assay with SW-620 colon and 1.34 µM in the assay with T-47D breast.
In the case of `O=C(O)c1ccc(/C=N/N=C2c3ccccc3-c3ccccc32)cc1`, the TGI with A498 renal, in the assay on A549 NSCLC, in the assay with KM12 colon, in the assay on M14 melanoma, in the assay on MALME-3M melanoma and with MOLT-4 leukemia was over 100 µM each time. The TGI is over 100 µM in the assay with PC-3 prostate, 32.6 µM with SF-295 CNS, over 100 µM in the assay on SW-620 colon and over 100 µM in the assay on T-47D breast.
As for `Cc1c(C(=O)c2ccccc2)[n+](=O)c2cc(F)c(F)cc2n1[O-]`, the GI50 in the assay on A498 renal was 12.1 µM; in the assay with A549 NSCLC, 7.26 µM; in the assay with KM12 colon, 11.4 µM; with M14 melanoma, 1.81 µM; with MALME-3M melanoma, 2.7 µM; with MOLT-4 leukemia, 1.04 µM. For the same molecule, the GI50 in the assay with PC-3 prostate was 3.37 µM; with SF-295 CNS it was 1.95 µM; in the assay with SW-620 colon it was 1.43 µM; in the assay with T-47D breast, 3.7 µM. For the same molecule, the TGI in the assay on A498 renal was determined as 24.9 µM; with A549 NSCLC, 30.9 µM; in the assay on KM12 colon, 25 µM; in the assay with M14 melanoma it was 3.36 µM; in the assay with MALME-3M melanoma it was 7.76 µM; in the assay with MOLT-4 leukemia it was 80.4 µM. The TGI worked out at 14.1 µM with PC-3 prostate, 3.46 µM in the assay with SF-295 CNS, 3.14 µM in the assay on SW-620 colon and 20.1 µM in the assay with T-47D breast.
Consider `Fc1ccc(Nc2nc3nonc3nc2Nc2ccc(I)cc2)cc1`, for which the GI50 in the assay with A498 renal was 0.227 µM; with A549 NSCLC it was 0.313 µM; with KM12 colon, 0.332 µM; in the assay on M14 melanoma, 0.289 µM; with MALME-3M melanoma, 0.0939 µM; in the assay with MOLT-4 leukemia, 0.219 µM. The GI50 in the assay on PC-3 prostate was 0.181 µM; with SF-295 CNS, 0.214 µM; with SW-620 colon, 0.387 µM; in the assay with T-47D breast, 0.228 µM. Also, the TGI stood at 0.708 µM in the assay with A498 renal; 11.2 µM in the assay with A549 NSCLC; 11.4 µM in the assay with KM12 colon; 2.86 µM with M14 melanoma; 0.511 µM in the assay on MALME-3M melanoma; 0.75 µM in the assay with MOLT-4 leukemia. Also, the TGI with PC-3 prostate is 10.7 µM; in the assay with SF-295 CNS it was 0.792 µM; in the assay on SW-620 colon it was 15.6 µM; in the assay with T-47D breast, 0.892 µM.
For the molecule `Cc1[nH]nc(C(=O)N/N=C/c2ccccc2Cl)c1N=NN(C)C`, the TGI with A498 renal, in the assay on A549 NSCLC, with KM12 colon, in the assay with M14 melanoma, in the assay on MALME-3M melanoma and in the assay with MOLT-4 leukemia was over 100 µM in each case. In addition, the TGI in the assay with PC-3 prostate, in the assay with SF-295 CNS, with SW-620 colon and with T-47D breast was over 100 µM throughout.
With `O=C(NN1C(=O)CSC1c1c(Cl)cccc1Cl)C(O)c1ccccc1` (stereo unspecified), the GI50 with A498 renal is over 100 µM; with A549 NSCLC it was 21.2 µM; with KM12 colon it was 34.2 µM; in the assay with M14 melanoma it was 35.7 µM; with MALME-3M melanoma it was 31.7 µM; in the assay with MOLT-4 leukemia it was 25 µM. For the same molecule, the GI50 was 29.6 µM with PC-3 prostate, 37.3 µM in the assay with SF-295 CNS, 71.8 µM in the assay on SW-620 colon and 40.4 µM in the assay with T-47D breast. Further, the TGI is over 100 µM in the assay with A498 renal; 81.6 µM with A549 NSCLC; over 100 µM with KM12 colon; over 100 µM with M14 melanoma; over 100 µM in the assay with MALME-3M melanoma; 80.7 µM with MOLT-4 leukemia. The TGI in the assay on PC-3 prostate, in the assay with SF-295 CNS, in the assay on SW-620 colon and with T-47D breast was over 100 µM in each case.
As for `Nc1n[nH]c2ccc([C@@H]3Nc4ccc5cn[nH]c5c4[C@H]4C5CCC(C5)[C@@H]34)cc12` (stereo partly specified), the GI50 in the assay on A498 renal was 0.181 µM; in the assay with A549 NSCLC it was 0.541 µM; with KM12 colon, 0.47 µM; in the assay with M14 melanoma, 0.317 µM; in the assay with MALME-3M melanoma, 0.522 µM; in the assay on MOLT-4 leukemia, 0.446 µM. Also, the GI50 in the assay with PC-3 prostate is 0.476 µM; with SF-295 CNS it was 0.277 µM; in the assay with SW-620 colon, 0.401 µM; in the assay on T-47D breast, 0.402 µM. Further, the TGI in the assay with A498 renal was 0.777 µM; in the assay on A549 NSCLC, over 100 µM; in the assay with KM12 colon it was 28 µM; with M14 melanoma, over 100 µM; in the assay with MALME-3M melanoma, over 100 µM; with MOLT-4 leukemia, over 100 µM. Moreover, the TGI in the assay on PC-3 prostate is over 100 µM; with SF-295 CNS it was 13.2 µM; with SW-620 colon it was over 100 µM; in the assay with T-47D breast, over 100 µM.
As to `COc1cc(C)[nH]c(=O)c1CNC(=O)c1c(C)n([C@H](C)C2CCN(CC(F)(F)F)CC2)c2ccccc12`, the GI50 with A498 renal was 28.2 µM; in the assay with A549 NSCLC, 87.4 µM; in the assay on KM12 colon, 41.6 µM; in the assay with M14 melanoma, 67.8 µM; in the assay with MALME-3M melanoma, 87.8 µM; with MOLT-4 leukemia it was 35.9 µM. For the same molecule, the GI50 with PC-3 prostate is 47.4 µM; in the assay with SF-295 CNS it was 31.8 µM; with SW-620 colon it was 65.3 µM; with T-47D breast, 25.9 µM. Also, the TGI in the assay with A498 renal, in the assay on A549 NSCLC, in the assay on KM12 colon, in the assay with M14 melanoma, in the assay on MALME-3M melanoma and in the assay on MOLT-4 leukemia was over 100 µM each time. Besides, the TGI with PC-3 prostate, in the assay on SF-295 CNS, in the assay on SW-620 colon and in the assay with T-47D breast was over 100 µM each time.
As to `NC(=O)c1csc(-c2ccc(CO)o2)n1`, the TGI in the assay on A498 renal, in the assay on A549 NSCLC, with KM12 colon, in the assay with M14 melanoma, in the assay with MALME-3M melanoma and in the assay with MOLT-4 leukemia was over 100 µM each time. Moreover, the TGI in the assay with PC-3 prostate, with SF-295 CNS, in the assay on SW-620 colon and in the assay on T-47D breast was over 100 µM throughout.
For the molecule `O=c1/c(=C\c2ccc(Br)cc2)sc2n1C(c1ccc(Br)cc1)C1=C(N=2)c2ccc3ccccc3c2OCC1` (stereo unspecified), the GI50 in the assay with A498 renal, in the assay with A549 NSCLC, in the assay on KM12 colon, in the assay with M14 melanoma, in the assay with MALME-3M melanoma and in the assay on MOLT-4 leukemia was over 100 µM throughout. For the same molecule, the GI50 in the assay on PC-3 prostate, in the assay with SF-295 CNS, in the assay on SW-620 colon and in the assay on T-47D breast was over 100 µM each time. Moreover, the TGI in the assay with A498 renal, with A549 NSCLC, in the assay with KM12 colon, in the assay on M14 melanoma, in the assay with MALME-3M melanoma and in the assay on MOLT-4 leukemia was over 100 µM in each case. Also, the TGI in the assay on PC-3 prostate, in the assay on SF-295 CNS, in the assay on SW-620 colon and in the assay with T-47D breast was over 100 µM throughout.
For `Cc1cc(C)c2c(c1)N(C)c1ncnc(-n3cnc4cc(C)ccc43)c1CC2C` (stereo unspecified), the GI50 with A498 renal is 1.41 µM; in the assay with A549 NSCLC, 4.03 µM; in the assay with KM12 colon, 3.67 µM; in the assay with M14 melanoma, 2.6 µM; in the assay on MALME-3M melanoma, 3.61 µM; in the assay with MOLT-4 leukemia it was 2.46 µM. The GI50 with PC-3 prostate was 2.25 µM; in the assay with SF-295 CNS, 2.89 µM; in the assay with SW-620 colon it was 4.1 µM; in the assay with T-47D breast, 4.17 µM. Besides, the TGI in the assay with A498 renal turned out to be 6.21 µM; with A549 NSCLC it was 56.9 µM; in the assay with KM12 colon it was 26 µM; in the assay with M14 melanoma it was 11.2 µM; in the assay on MALME-3M melanoma, 17.3 µM; in the assay with MOLT-4 leukemia, 9.57 µM. Also, the TGI is 14.8 µM with PC-3 prostate, 12 µM in the assay on SF-295 CNS, 64.1 µM in the assay with SW-620 colon and 24.9 µM in the assay with T-47D breast.
As for `COc1cc2c(cc1OCCCN1CCN(C(=S)SCCC(C#N)(c3ccccc3)c3ccccc3)CC1)N=C[C@@H]1CCCN1C2=O`, the GI50 in the assay with A498 renal was 1 µM; with A549 NSCLC it was 1.25 µM; in the assay with KM12 colon, 1.64 µM; in the assay with M14 melanoma it was 1.17 µM; in the assay on MALME-3M melanoma, 0.938 µM; with MOLT-4 leukemia, 0.375 µM. Also, the GI50 was 1.45 µM in the assay on PC-3 prostate, 1.11 µM with SF-295 CNS, 0.514 µM in the assay with SW-620 colon and 1.58 µM with T-47D breast. Besides, the TGI in the assay with A498 renal was 2.32 µM; in the assay on A549 NSCLC, 7.36 µM; with M14 melanoma it was 2.67 µM; in the assay with MALME-3M melanoma, 2.19 µM; in the assay on PC-3 prostate, over 100 µM; with SF-295 CNS it was 3.81 µM. The TGI with SW-620 colon was determined as 1.94 µM.
